In patent US4476120A, “Thiolic derivatives of erythromycin having therapeutic activity, and pharmaceutical compositions containing them” (Sigma Tau Indistrie Farmaceutiche Riunites, p.A, priority 1982, dated 1984):
In brackets after ≈: the same amount, converted by molar mass.

Key:
Staph. albus SS 03 = type: cell-based; conditions: Brain Heart Infusion, estolate and RV11-RV15 previously hydrolized, unit assumed
Staph. albus SS 04 = type: cell-based; conditions: Brain Heart Infusion, estolate and RV11-RV15 previously hydrolized, unit assumed
Staph. aureus SS 08 = type: cell-based; conditions: Brain Heart Infusion, estolate and RV11-RV15 previously hydrolized, unit assumed
Staph. aureus SS 09 = type: cell-based; conditions: Brain Heart Infusion, estolate and RV11-RV15 previously hydrolized, unit assumed
Staph. aureus SS 10 = type: cell-based; conditions: Brain Heart Infusion, estolate and RV11-RV15 previously hydrolized, unit assumed
[1] = test system: Strept. haemolyticus SS 17; type: cell-based; conditions: Brain Heart Infusion, estolate and RV11-RV15 previously hydrolized, unit assumed
[2] = test system: Strept. haemolyticus SS 18; type: cell-based; conditions: Brain Heart Infusion, estolate and RV11-RV15 previously hydrolized, unit assumed
Strept. faecalis SS 19 = type: cell-based; conditions: Brain Heart Infusion, estolate and RV11-RV15 previously hydrolized, unit assumed
S. lutea ATCC 9341 = type: cell-based; conditions: Brain Heart Infusion, estolate and RV11-RV15 previously hydrolized, unit assumed
B. subtilis SS 127 = type: cell-based; conditions: Brain Heart Infusion, estolate and RV11-RV15 previously hydrolized, unit assumed
B. cereus ATCC 11778 = type: cell-based; conditions: Brain Heart Infusion, estolate and RV11-RV15 previously hydrolized, unit assumed
B. anthranis SS 08 = type: cell-based; conditions: Brain Heart Infusion, estolate and RV11-RV15 previously hydrolized, unit assumed
Br. melitensis SS 19 = type: cell-based; conditions: unit assumed
Br. abortus SS 7 = type: cell-based; conditions: Brain Heart Infusion, estolate and RV11-RV15 previously hydrolized, unit assumed
Citrobacter SS 05 = type: cell-based; conditions: Brain Heart Infusion, estolate and RV11-RV15 previously hydrolized, unit assumed
Citrobacter SS 09 = type: cell-based; conditions: Brain Heart Infusion, estolate and RV11-RV15 previously hydrolized, unit assumed
S. infantis SS 08 = type: cell-based; conditions: Brain Heart Infusion, estolate and RV11-RV15 previously hydrolized, unit assumed
S. heidelberg SS 18 = type: cell-based; conditions: Brain Heart Infusion, estolate and RV11-RV15 previously hydrolized, unit assumed
E. cloacae SS 07 = type: cell-based; conditions: Brain Heart Infusion, estolate and RV11-RV15 previously hydrolized, unit assumed
E. aerogenes SS 011 = type: cell-based; conditions: Brain Heart Infusion, estolate and RV11-RV15 previously hydrolized, unit assumed
Ps. aeruginosa SS 10 = type: cell-based; conditions: Brain Heart Infusion, estolate and RV11-RV15 previously hydrolized, unit assumed
E. coli SS 04 = type: cell-based; conditions: Brain Heart Infusion, estolate and RV11-RV15 previously hydrolized, unit assumed
E. coli SS 05 = type: cell-based; conditions: Brain Heart Infusion, estolate and RV11-RV15 previously hydrolized, unit assumed
E. coli SS 06 = type: cell-based; conditions: Brain Heart Infusion, estolate and RV11-RV15 previously hydrolized, unit assumed
E. coli SS 07 = type: cell-based; conditions: Brain Heart Infusion, estolate and RV11-RV15 previously hydrolized, unit assumed
Pr. mirabilis SS 09 = type: cell-based; conditions: Brain Heart Infusion, estolate and RV11-RV15 previously hydrolized, unit assumed
Pr. vulgaris SS 10 = type: cell-based; conditions: Brain Heart Infusion, estolate and RV11-RV15 previously hydrolized, unit assumed
Kl. aerogenes SS 71 = type: cell-based; conditions: Brain Heart Infusion, estolate and RV11-RV15 previously hydrolized, unit assumed
H. tubercolosis SS 03 = type: cell-based; conditions: Brain Heart Infusion, estolate and RV11-RV15 previously hydrolized, unit assumed
Text: (§1) In the following table I the MIC/ml values are indicated corresponding to the lowest concentration capable of inducing a complete inhibition of the bacterial development.

Kl. pneumoniae SS 04 = type: cell-based; conditions: Brain Heart Infusion, estolate and RV11-RV15 previously hydrolized, unit assumed
Text: as §1

Sr. marcescens SS 03 = type: cell-based; conditions: Brain Heart Infusion, estolate and RV11-RV15 previously hydrolized, unit assumed
C. diphtheriae SS 19 = type: cell-based; conditions: Brain Heart Infusion, estolate and RV11-RV15 previously hydrolized, unit assumed
D. pneumoniae SS 23 [3] = type: cell-based; conditions: Brain Heart Infusion, estolate and RV11-RV15 previously hydrolized, unit assumed
N. gonorreae SS 27 = type: cell-based; conditions: Brain Heart Infusion, estolate and RV11-RV15 previously hydrolized, unit assumed
N. meningitidis SS 04 = type: cell-based; conditions: Brain Heart Infusion, estolate and RV11-RV15 previously hydrolized, unit assumed
H. influentiae SS 02 = type: cell-based; conditions: Brain Heart Infusion, estolate and RV11-RV15 previously hydrolized, unit assumed
H. pertussis SS 03 = type: cell-based; conditions: Brain Heart Infusion, estolate and RV11-RV15 previously hydrolized, unit assumed
C. albicans SS 04 = type: cell-based; conditions: Brain Heart Infusion, estolate and RV11-RV15 previously hydrolized, unit assumed
Cl. tetani SS 17 = type: cell-based; conditions: Brain Heart Infusion, estolate and RV11-RV15 previously hydrolized, unit assumed
Acute toxicity = type: in vivo; conditions: mouse, in vivo, po, 14400 min
Description: The acute toxicity was assessed in Swiss white mice by oral and intravenous route. The LD50 values have been calculated by the methods of Probits, starting from the mortality recorded 10 days after the treatment.

Staph. aureus SS 07 = assay: Experimental infection induced by Staph. aureus SS 07; type: in vivo, Swiss white mice; conditions: os; Staph. aureus SS 07; mg/kg of erythromycin; survival after 7 days; 10080 min
Procedure, shortened: (§2)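 Swiss mice of 20 g infected parenterally with lethal amounts of Staph. aureus SS 07 or D. pneumoniae SS 23. Antibiotics were given at infection and again 6 and 24 h later. ED50 was derived from survival at 7 days.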

D. pneumoniae SS 23 [4] = assay: Experimental infection induced by D. pneumoniae SS 23; type: in vivo, Swiss white mice; conditions: os; D. pneumoniae SS 23; mg/kg of erythromycin; survival after 7 days; 10080 min
Procedure, shortened: as §2

[5] = Histological examination of bronchi after SO2 inhalation; type: in vivo, Sprague Dawley male rats; conditions: oral, 500 mg/kg

In the case of CCC(=O)O[C@H]1[C@H](O[C@@H]2[C@@H](C)[C@H](O[C@H]3C[C@@](C)(OC)[C@@H](O)[C@H](C)O3)[C@@H](C)C(=O)O[C@H](CC)[C@@](C)(O)[C@H](O)[C@@H](C)C(=O)[C@H](C)C[C@@]2(C)O)O[C@H](C)C[C@@H]1N(C)C [RV13, erythromycin-monopropionate-thiazolidin-carboxylate], the MIC (Staph. albus SS 03) is reported as 0.05 µg/mL (≈ 0.0633 µM), the MIC (Staph. albus SS 04) is reported as 0.025 µg/mL (≈ 0.0316 µM) and the MIC (Staph. aureus SS 08) is reported as 0.05 µg/mL (≈ 0.0633 µM). The MIC (Staph. aureus SS 09) was 0.1 µg/mL (≈ 0.127 µM), the MIC (Staph. aureus SS 10) was 0.1 µg/mL (≈ 0.127 µM) and the MIC [1] was 1.5 µg/mL (≈ 1.9 µM). For the same compound, the MIC [2] was 1.5 µg/mL (≈ 1.9 µM), the MIC (Strept. faecalis SS 19) was 0.05 µg/mL (≈ 0.0633 µM) and the MIC (S. lutea ATCC 9341) was 0.025 µg/mL (≈ 0.0316 µM). The MIC (B. subtilis SS 127) was 0.025 µg/mL (≈ 0.0316 µM), the MIC (B. cereus ATCC 11778) was 0.8 µg/mL (≈ 1.01 µM) and the MIC (B. anthranis SS 08) was 0.4 µg/mL (≈ 0.506 µM). For the same compound, the MIC (Br. melitensis SS 19) was 3 µg/mL (≈ 3.8 µM), the MIC (Br. abortus SS 7) was 6 µg/mL (≈ 7.59 µM) and the MIC (Citrobacter SS 05) was greater than 200 µg/mL. For the same compound, the MIC (Citrobacter SS 09) was greater than 200 µg/mL, the MIC (S. infantis SS 08) was 100 µg/mL (≈ 127 µM) and the MIC (S. heidelberg SS 18) was 100 µg/mL (≈ 127 µM). For the same compound, the MIC (E. cloacae SS 07) was greater than 200 µg/mL, the MIC (E. aerogenes SS 011) was 50 µg/mL (≈ 63.3 µM) and the MIC (Ps. aeruginosa SS 10) was 100 µg/mL (≈ 127 µM). For the same compound, the MIC (E. coli SS 04) was 100 µg/mL (≈ 127 µM), the MIC (E. coli SS 05) was 50 µg/mL (≈ 63.3 µM) and the MIC (E. coli SS 06) was 50 µg/mL (≈ 63.3 µM). The MIC (E. coli SS 07) was 50 µg/mL (≈ 63.3 µM), the MIC (Pr. mirabilis SS 09) was greater than 200 µg/mL and the MIC (Pr. vulgaris SS 10) was greater than 200 µg/mL. It also gave an MIC (Kl. aerogenes SS 71) of 100 µg/mL (≈ 127 µM), an MIC (H. tubercolosis SS 03) of 50 µg/mL (≈ 63.3 µM) and an MIC (Kl. pneumoniae SS 04) of 100 µg/mL (≈ 127 µM). It also gave an MIC (Sr. marcescens SS 03) of 100 µg/mL (≈ 127 µM), an MIC (C. diphtheriae SS 19) of 0.01 µg/mL (≈ 0.0127 µM) and an MIC (D. pneumoniae SS 23 [3]) of 0.025 µg/mL (≈ 0.0316 µM). It also gave an MIC (N. gonorreae SS 27) of 0.8 µg/mL (≈ 1.01 µM), an MIC (N. meningitidis SS 04) of 0.8 µg/mL (≈ 1.01 µM) and an MIC (H. influentiae SS 02) of 1.5 µg/mL (≈ 1.9 µM). For the same compound, the MIC (H. pertussis SS 03) was 0.2 µg/mL (≈ 0.253 µM), the MIC (C. albicans SS 04) was 100 µg/mL (≈ 127 µM) and the MIC (Cl. tetani SS 17) was 0.2 µg/mL (≈ 0.253 µM). For the same compound, the “LD50 (reliability limits)” value (Acute toxicity) was 3000 mg·kg, the “ED50 (reliability limits)” value (Staph. aureus SS 07) was 2.20 (2.44-1.99) mg/kg and the “ED50 (reliability limits)” value (D. pneumoniae SS 23 [4]) was 113.88 (144.73-89.60) mg/kg. The “histological appearance of non obstructed bronchi” value ([5]; free non obstructed) was “presence of bronchi having almost normal appearance” and the “histological appearance of obstructed bronchial tract” value ([5]; obstructed) was “fully like that of the control animals”.
